Data as given in publication PMC4788259 (PLoS Neglected Tropical Diseases, 2016).

Tested on: E. multilocularis metacestodes
Assay: PGI assay: phosphoglucose isomerase release from damaged metacestodes
Assay type: cell-based, Echinococcus multilocularis
Conditions: 10 μM, 5 days, single wells, relative to DB1127 (10 μM)
Outline: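 E. multilocularis metacestode vesicles (strain H95, grown in BALB/c mice, 2–4 mm diameter) were exposed in vitro to compounds for 5 days. Damage was read as phosphoglucose isomerase released into the medium. Initial screening used 10 μM in single wells, with 0.1% DMSO as negative control. EC50 values were derived from this read-out.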

SMILES	PGI (% of DB1127 at 10 uM)
CCOc1cc2c(cc1OCC)C(c1cc(Cl)c(O)c(OCC)c1)NCC2 (stereo not drawn) [MMV000481]	-21.47%
CCOc1ccc(-n2cc(-c3ccccc3)c3c(SCc4cc(C)ccc4C)ncnc32)cc1 [MMV085471]	-19.26%
CCOc1ccc(Nc2ccnc3cc(Cl)ccc23)cc1 [MMV007285]	-9.06%
Cc1ccc(N2C3c4ccccc4N(S(=O)(=O)c4ccc(C)cc4)C2c2ccccc2N3S(=O)(=O)c2ccc(C)cc2)cc1 [MMV007160]	-42.36%
CCCc1c(CC)c(=N)c2ccccc2n1C [MMV008416]	-40.39%
COc1ccc(Nc2nc(N/N=C/c3ccc(O)cc3)nc(Nc3ccc([N+](=O)[O-])cc3)n2)cc1 [MMV666689]	5.99%
CN(C)c1ccc(-c2nc3ccc(N)cc3[nH]2)cc1 [MMV666102]	-14.14%
Cl.N=c1n(CCN2CCCCC2)c2ccccc2n1CC(O)c1cccc(Br)c1 (stereo not drawn) [MMV665902]	-8.42%
CCCCCCc1cc(O)c2c3c(c(=O)oc2c1)CCC(C)C3 (stereo not drawn) [MMV665987]	4.36%
CCCN(CCC)CC(O)COc1ccccc1C(=O)Nc1ccccc1 (stereo not drawn) [MMV006455]	-26.39%
CCOc1ccc2nc(C)cc(Nc3ccc(Br)cc3)c2c1 [MMV006522]	30.79%
COc1ccc2c(=O)cc(C(Cl)(Cl)Cl)oc2c1 [MMV665820]	-22.08%
O=C(NCc1ccco1)C1CCN(S(=O)(=O)c2ccc(Cl)cc2)CC1 [MMV006188]	-16.08%
O=C(c1ccccc1F)N(Cc1ccc(Cl)cc1)c1ccccn1 [MMV665899]	-103.42%
Oc1c(C(Nc2ccccn2)c2cccc(Oc3ccccc3)c2)ccc2cccnc12 (stereo not drawn) [MMV665814]	-6.04%
COc1ccc(C(=O)Nc2ccc3nc(N4CCCCC4)cc(C)c3c2)cc1OC [MMV019758]	-36.67%
C=CC12CCN(CC1)C(C(O)c1ccnc3ccc(OC)cc13)C2.Cl (stereo not drawn) [MMV665782]	-43.49%
COc1ccccc1CNC(=O)CCn1c(=O)[nH]c2ccccc2c1=O [MMV665916]	-47.23%
COc1cc(C(=O)ON=C(N)Cc2cccc3ccccc23)cc(OC)c1OC [MMV666687]	1.57%
O=C(Nc1ccc(N2CCN(Cc3ccccc3)CC2)cc1)c1cccs1.O=C(O)C(F)(F)F [MMV019670]	-9.43%
CN(C)CCCNc1c2ccccc2nc2ccccc12 [MMV000448]	-25.46%

SMILES	PGI (% of DB1127 at 10 uM)
CC1CC(C)CN(C(=O)c2ccc(Cl)cc2Cl)C1 (stereo not drawn) [MMV001344]	-22.37%
CCCCCn1c(=N)n(CC(O)COc2cccc(C)c2)c2ccccc21.Cl (stereo not drawn) [MMV000444]	66.85%
c1ccc(/C2=N/c3ccccc3/N=C(/c3ccccc3)c3ccccc32)cc1 [MMV007113]	13.66%
O=c1cc(NC2CCN(CCCc3ccccc3)CC2)c2cc(Cl)ccc2o1 [MMV665786]	-0.88%
CCCCCCn1c(=N)n(CC(O)COc2cccc(C)c2)c2ccccc21.Cl (stereo not drawn) [MMV000445]	130.28%
CCCC(c1nnnn1C1CCCCC1)N1CCN(C(=O)c2ccco2)CC1.Cl (stereo not drawn) [MMV666093]	-0.54%
Cc1cc(C=C2SC(=Nc3ccccc3)N(C3CCCC3)C2=O)c(C)n1-c1ccc(Cl)cc1 [MMV666688]	-35.93%
COc1cc(CNCCc2ccc(Cl)cc2)cc(OC)c1O [MMV128432]	-10.12%
COc1cccc(C(=O)NC(c2ccc(C)cc2)c2cc(Cl)c3cccnc3c2O)c1 (stereo not drawn) [MMV665969]	-25.94%
COc1ccc(CNC(=O)c2cc3c(=O)n4ccccc4nc3n(CCc3ccccc3)c2=N)cc1 [MMV665881]	6.76%
CSc1ccccc1C(=O)Nc1nc(-c2ccccn2)cs1 [MMV001246]	-29.53%
COc1cc(OC)c(N(C)C(=O)c2cc3c(s2)-c2ccccc2S(=O)(=O)C3)cc1Cl [MMV006427]	-47.62%
CN1CCN(c2ccc(Nc3c4ccccc4nc4ccccc34)cc2)CC1 [MMV006172]	2.41%
N=c1n(CCN2CCCCC2)c2ccccc2n1CC(=O)c1ccc(Cl)c(Cl)c1 [MMV396723]	22.11%
CC(C)(C)c1ccc(O)c(CNC2CCCCC2)c1 [MMV665785]	1.27%
COc1ccc(C2N(C)c3ccccc3N2C)cc1 [MMV666075]	0.50%
CCCn1c(=N)c(C(=O)NC2CCCCC2)cc2c(=O)n3cccc(C)c3nc21 [MMV008829]	-2.96%
CN1CCN(c2ncnc3c2[nH]c2ccc(Cl)cc23)CC1 [MMV396704]	-24.85%
CCN(Cc1ccccc1)C1CCN(Cc2cc(Br)ccc2O)CC1.O=C(O)C(=O)O [MMV019127]	-5.90%
Cc1sc(NC(=O)c2ccccc2)c(C(c2cccs2)N2CCN(c3ccccc3)CC2)c1C (stereo not drawn) [MMV396652]	-26.88%
CC(NCc1ccccc1)c1cc(Cl)ccc1O (stereo not drawn) [MMV665789]	-38.95%

SMILES	PGI (% of DB1127 at 10 uM)
COc1cc2cc(C(=O)Nc3ccccc3)c(N)nc2cc1OC [MMV006767]	-7.82%
COc1ccc2nc(N)nc(C)c2c1 [MMV665897]	-26.21%
Cc1cc(Nc2ccc(Cl)cc2)n2nc(C(F)(F)F)nc2n1 [MMV011256]	-32.20%
Cc1ccc(-c2cc(C(=O)Nc3ccc(S(=O)(=O)N4CCCCC4)cc3)[nH]n2)c(O)c1 [MMV665906]	-8.23%
COc1ccc(CNC2CCN(c3ccc(NC(=O)c4cccc(Cl)c4)cc3)CC2)cc1OC [MMV666067]	-35.43%
CCn1nc(-c2ccc(C(=O)OC)cc2)nc2c(=O)n(C)c(=O)nc1-2 [MMV306025]	-10.99%
CCOC(=O)c1ccc2[nH]c(-c3ccccc3)cc(=O)c2c1 [MMV006457]	4.84%
CCOc1cc2c(cc1OCC)C(c1cc(Cl)ccc1O)NCC2 (stereo not drawn) [MMV000478]	32.45%
COc1ccc(C(C)=O)cc1N1C(=O)C2C(C1=O)C1(c3ccccc3)C(=O)C2(c2ccccc2)C(c2ccc(C)cc2)=C1c1ccc(C)cc1 (stereo not drawn) [MMV007695]	4.56%
Oc1ccccc1CN1CCC2(CCCN(Cc3ccccc3F)C2)C1 (stereo not drawn) [MMV666116]	-7.59%
CCOc1ccc(/C=C/c2nc(=O)c3ccccc3o2)cc1 [MMV665940]	-92.49%
Cc1sc(NC(=O)c2ccco2)c(C(c2cccnc2)N2CCC(Cc3ccccc3)CC2)c1C (stereo not drawn) [MMV396663]	-1.97%
Nc1ccc(-c2nc3cc(Cc4ccc5[nH]c(-c6ccc(N)cc6)nc5c4)ccc3[nH]2)cc1 [MMV665943]	9.49%
COc1ccc(-c2nc(NC(=O)CS(=O)(=O)c3ccc(F)cc3)sc2C)cc1 [MMV665915]	-67.15%
Clc1ccc2[nH]c3c(NCCCN4CCOCC4)ncnc3c2c1 [MMV006587]	-6.35%
CCC(c1ccccc1)c1nn2c(-c3cccs3)nnc2s1 (stereo not drawn) [MMV665876]	-39.84%
COc1ccc(C(=O)C2CC2c2ccc(Cl)cc2)cc1 (stereo not drawn) [MMV665924]	-13.71%
c1ccc(Cn2c(N=Nc3c(Nc4ccccc4)ccc4ccccc34)nc3ccccc32)cc1 [MMV666023]	-50.58%
CC1CCN(Cc2ccc(NC(=O)c3cc4ccc5cccnc5c4[nH]3)cc2)CC1 [MMV020549]	-59.67%
COc1cc(-c2nc(-c3ccccc3)c(-c3ccccc3)[nH]2)cc(OC)c1O [MMV020750]	7.02%
CCC(C)NCC(O)(c1ccc(Cl)cc1)c1ccc(Cl)cc1 (stereo not drawn) [MMV665928]	-109.93%

SMILES	PGI (% of DB1127 at 10 uM)
CCOC(=O)C1=C(C)N=c2sc(=Cc3ccccc3O)c(=O)n2C1c1ccc(OC)c2ccccc12 (stereo not drawn) [MMV666604]	-9.67%
CCOc1ccc(-c2nonc2NC(=O)c2cccc(C)c2)cc1OCC [MMV665805]	-25.24%
O=C(Nc1ccsc1C(=O)NC1CCCCC1)c1ccc(F)cc1 [MMV665939]	-15.17%
CC(C)c1ccc(CNCC(O)c2ccccc2)cc1.Cl (stereo not drawn) [MMV001049]	12.43%
Cc1cc(C)c2c(c1)OCN(Cc1ccccc1Cl)C2 [MMV006558]	-21.27%
Br.CCN(CC)S(=O)(=O)c1ccc(-c2csc(Nc3ccc(C)c(C)c3)n2)cc1 [MMV009108]	14.04%
Cl.Cn1c(=O)n(C)c2cc(CNCCNc3ccnc4cc(Cl)ccc34)ccc21 [MMV665875]	7.55%
O=C(NC(c1ccccc1)c1ccc2cccnc2c1O)c1ccccc1 (stereo not drawn) [MMV666080]	-67.16%
CCCCCCc1cc2cc(-c3csc(C=Cc4ccccc4)n3)c(=O)oc2cc1O [MMV666692]	-4.22%
COc1cccc(C=Cc2nc(=O)c3ccccc3o2)c1OC [MMV666693]	-16.84%
CC(=O)Nc1nnc(SCc2c(C)cc(C(C)(C)C)cc2C)s1 [MMV020700]	1.07%
O=C1c2ccccc2-c2nnc(-c3ccc(Br)cc3)cc21 [MMV665934]	-7.23%
Nc1nc(Nc2cccc(F)c2)nc2ccccc12 [MMV080034]	-19.84%
COc1ccc(C)c2sc(N(Cc3cccnc3)C(=O)c3ccc(C#N)cc3)nc12 [MMV001241]	-0.13%
CCOC(=O)c1cnc2ccc(OC)cc2c1Nc1ccc(N2CCN(C)CC2)cc1 [MMV000704]	8.26%
CN(C)c1ccc(N2C(N)=NC(N)=NC2(C)C)cc1 [MMV667487]	-14.53%
CC(C)CNC(=O)c1c(N)n(CCc2ccccc2F)c2nc3ccccc3nc12 [MMV396744]	-10.23%
CN(C)CCCNCc1ccc(-c2ccc(F)c(Cl)c2)o1.Cl [MMV020505]	-8.77%
